Measurements published in patent US12178838B2, “Synthetic neuromodulatory peptides” (Lactocore, Inc., priority 2019, dated 2024).
Like-named read-outs stand apart in the source and are kept apart here.

Experiments:
[1] = target: FQSE (SEQ ID NO:10)-specific binding sites in the rat cortex; test: Radioligand analysis with [3H] FQSE on rat cortex membranes
Protocol: After decapitation, the tissues were immediately frozen in liquid nitrogen and stored in a low-temperature refrigerator at −80° C. On the day of the experiment, brain tissue (cortex, about 300 mg) was homogenized in a Teflon-glass Potter homogenizer 1:25 W:V in the buffer (50 mM Tris-HCl, pH 7.4). The homogenate was centrifuged at 40,000 g for 20 min. The obtained precipitate was homogenized in a buffer (50 mM Tris-HCl; pH=7.4) and centrifuged again at 40,000 g for 20 min. A similar procedure was performed again. The precipitate was resuspended in 15 ml of the same buffer and used for the radioligand analysis.
The incubation mixture (final volume 0.5 ml) contained 50 μl […]
At the end of the incubation, the samples were filtered through Ge/C glass fiber filters (Whatman) previously moistened with 0.3% polyethyleneimine for 2 hours at room temperature. Each tube was washed twice with cold buffer, then the filters were washed twice with the same volume of buffer.
The filters were air-dried and transferred to scintillation vials. Filters were poured with 5 ml of toluene-based scintillation liquid (4 g PPO, 0.2 g POPOP per liter of toluene).
To construct the curves of the radioactive ligand's displacement each concentration of the test substance was taken in 3 replications. […]

BALB/C mice [2] = test: Open Field test in mice; type: in vivo; conditions: Diazepam 0.75 mg/kg
Protocol: (§1) After an adaptation period, the test substance was intraperitoneally injected into mice. Behavioral parameters were measured in 30 minutes after injection. The tests were administered as follows: day 1—the Open field test, day 3—the Elevated plus maze test, day 5—the Marble burying test, days 12-13—the Porsolt swim (two-day modification) test.
In the Open field test, the installation is an arena with a diameter of 63 cm, illuminated by bright light (500 lux) (OpenScience, Russia). The following parameters were measured during 5-minute experiment: a total distance (cm), a time of motion (if the speed is more than 5 cm/s), an immobility (if the speed is less than 0.2 cm/sec), a mean and maximum velocity, and a number of episodes of motor activity and “freezing”. The same set of parameters, as well as latent period and time duration of stay, were recorded for the central sector of the arena. Defecations and rearing (animal raise upright on hind limbs) were assessed visually (File and Wardill (1975) Validity of head-dipping as a measure of exploration in a modified hole-board. Psychopharmacol., 44, 53-59). The test is designed to measure the level of motor and exploratory activity.
(§2) All substances were injected intraperitoneally in a volume of 10 μl of solution per 1 gram of animal weight 30 minutes prior to behavioral testing.

BALB/C mice [3] = test: Elevated Plus Maze test in mice; type: in vivo; conditions: ip, Diazepam 0.75 mg/kg
Protocol: as §1
In the elevated plus maze test, a test arena includes two open and two closed arms crossed in the middle. The arm length is 30 cm, the height of the closed arms side walls is 15 cm. The entire installation is raised 70 cm above the floor. The open arms have bright uniform illumination of about 400 lux, and the closed arms have illumination of about 30-40 lux. Mice were placed at the junction of the four arms of the maze (center), facing an open arm. The following behavioral parameters were automatically registered by the EthoVision, Noldus program within 5 minutes of the experiment: a total distance (cm), a time of motion (if the speed is more than 5 cm/s), an immobility (if the speed is less than 0.2 cm/sec), a mean and maximum velocity, and the number of episodes of motor activity and “freezing”. The same set of parameters, as well as a latent period and the duration of stay, were measured for the central sector, open and closed arms separately. (Manufactured by OpenScience, Russia).
as §2
The second group of parameters includes a time on open arms (in seconds) (FIG. 35), a number of open arms entries (FIG. 36), a number of risk behavior (number of rearings and dangle events, as shown in FIG. 37]), and an anxiety index (FIG. 38). The anxiety index (AI) was calculated using the following formula: AI=100*(1−(time on open arms/total test time+open arms entries/total number of entries)/2)

[4] = tested on: Wistar rats after chronic unpredictable mild stress; test: CUMS model: Novelty Suppressed Feeding Test; type: in vivo
Protocol: During stress, the animals were placed in individual cells and exposed to stressful conditions each day for 26 days. Two stressors were used daily, applied in the following order: • Day 1. 10 am-6 pm, rats were placed in a cold room for an hour. From 6 PM to 10 am the lights were turned on and off every 2 hours. • Day 2. 10 am-6 pm, cage tilted to 45°. From 6 PM to 10 am water deprivation. • Day 3. 10 am-6 pm, stroboscopic light. From 6 PM to 10 am the light was left on overnight. • Day 4. 10 am-6 pm, wet bedding. From 6 PM to 10 am the animals were put in a small mouse cage. • Day 5. 10 am-6 pm, no bedding. From 6 PM to 10 am the lights were turned on and off every 2 hours. • Day 6. 10 am-6 pm, a new rat was placed in the cage (6-month-old). From 6 PM to 10 am the light was left on overnight. • Day 7. 10 am-6 pm, white noise. From 6 PM to 10 am a stroboscopic light was turned on at night. • Day 8-26. Repetition of previously used stressors in the specified sequence.
Experimental substances were administered daily starting from the 58-59 day of the experiment. The administration took place 30 minutes before the start of behavioral testing. On days when there were no tests, the substances were administered in the morning.
To assess anxiety and food motivation, a test for eating behavior in a new environment was used. […] The time to start eating and the duration of consumption were recorded. […]

CN1C(=O)CN=C(c2ccccc2)c2cc(Cl)ccc21 [Diazepam]
IC50 ([1]; read-out: IC50 after different incubation times: 50 min): 52 ± 0.3 µM
IC50 ([1]; read-out: IC50 after different incubation times: 1 h): 89 ± 0.3 µM
IC50 ([1]; read-out: IC50 after different incubation times: 1 h 30 min): 95 ± 0.2 µM
IC50 ([1]; read-out: IC50 for the [3H]-FQSE binding sites in rat cortex membranes): ~100 µM
total distance (BALB/C mice [2]; ip 30 min before, FQSE 1 mg/kg): 2542.2±179.77 cm
time the animals spent in the center (BALB/C mice [2]; ip): not significantly different
number of center entries (BALB/C mice [2]; ip, FQSE 1 mg/kg): not significantly different
number of rearings (BALB/C mice [2]; ip, FQSE 1 mg/kg): 10.8±2.1
Time on open arms (BALB/C mice [3]; FQSE 20 mg/kg): 67.4 ± 18.43 s
Open arms entries (BALB/C mice [3]; FQSE 1 mg/kg): 6.5±0.99
The number of risk behavior (BALB/C mice [3]; FQSE 1 mg/kg): 15±2.8
total distance (BALB/C mice [3]; FQSE 1 mg/kg): 1219±91.4 cm
result obtained in NSFT (11 administrations) ([4]; CUMS, FQSE 0.5 mg/kg, Diazepam): anxiolytic effect
latency to start eating ([4]; FQSE 0.5 mg/kg i.n., diazepam 0.5 mg/kg i.p., 11 days): significant decrease in latency
